Experimental data published in US10023554B2, “Halogen-substituted heterocyclic compound salt” (UBE INDUSTRIES, LTD., priority 2014, dated 2018).

Test system: A2058 human melanoma cells
Test: Cell migration test (LPA-induced migration, Chemo-Tx)
Format: cell-based
Settings: LPA final concentration 100 nM, 3 hours at 37° C., read-out: concentration (IC50) of the test compound required for 50% inhibition of the cell migration activity of LPA
Experimental: The cell migration test was carried out using Chemo-Tx (registered trademark) (116-8, Neuro Probe). A2058 human melanoma cells (obtained from European Collection of Cell Culture) were cultured in a serum-free EMEM medium for 24 hours, and were re-suspended in a 0.1% BSA-containing DMEM medium to give a cell suspension. The test compounds dissolved in DMSO in various concentrations were each added to the cell suspension, and the suspensions were cultured at 37° C. for 15 minutes (final DMSO concentration 0.5%). LPA dissolved in a 0.1% BSA-containing DMEM medium (final concentration 100 nM) was added to a Chemo-Tx 96 well plate, and a Chemo-Tx filter coated with 0.001% Fibronectin on both sides was placed onto the plate. The cultured cell suspensions (25,000 cells) were added onto the upper surface of the filter and were further cultured at 37° C. for 3 hours. Thereafter, the cells on the upper surface of the filter were removed. After the filter was removed and was dried, the cells which had migrated to the lower surface of the filter were stained with Diff-Quik stain (16920, Sysmex). The absorbance of the filter (570 nm) was measured and the concentration (IC50) of the test compound required for 50% inhibition of the cell migration activity of LPA was determined by non-linear regression analysis using EXSAS (version 7.6.0, Arm Systex).

| SMILES | IC50 |
| --- | --- |
| COc1cc(-c2sc(Cl)cc2NC(=O)O[C@H](C)c2ccccc2)ccc1-c1ccc(C2(C(=O)O)CC2)cc1 [Example 1, Sodium (R)-1-[4′-(5-chloro-3-{[(1-phenylethoxy)carbonyl]amino}thiophen-2-yl)-2′-methoxy-[1,1′-biphenyl]-4-yl]cyclopropanecarboxylate] | ≤ 200 nM |
| C[C@@H](OC(=O)Nc1cc(Cl)sc1-c1ccc(-c2ccc(C3(C(=O)O)CC3)cc2)cc1)c1ccsc1 [Example 10, Sodium (R)-1-{4′-[5-chloro-3-({[1-(thiophen-3-yl)ethoxy]carbonyl}amino)thiophen-2-yl]-[1,1′-biphenyl]-4-yl}cyclopropanecarboxylate] | ≤ 200 nM |
| COc1cc(-c2sc(F)cc2NC(=O)O[C@H](C)c2ccccc2Cl)ccc1-c1ccc(C2(C(=O)O)CC2)cc1 [Example 7, Sodium (R)-1-{4′-[3-({[1-(2-chlorophenyl)ethoxy]carbonyl}amino)-5-fluorothiophen-2-yl]-2′-methoxy-[1,1′-biphenyl]-4-yl}cyclopropanecarboxylate] | ≤ 200 nM |
| Cc1cscc1[C@@H](C)OC(=O)Nc1cc(F)sc1-c1ccc(-c2ccc(C3(C(=O)O)CC3)cc2)cc1 [Example 13, Sodium (R)-1-{4′-[5-fluoro-3-({[1-(4-methylthiophen-3-yl)ethoxy]carbonyl}amino)thiophen-2-yl]-[1,1′-biphenyl]-4-yl}cyclopropanecarboxylate] | ≤ 200 nM |
| COc1cc(-c2sc(Cl)cc2NC(=O)O[C@H](C)c2cc(F)ccc2F)ccc1-c1ccc(C2(C(=O)O)CC2)cc1 [Example 4, Sodium (R)-1-{4′-[5-chloro-3-({[1-(2,5-difluorophenyl)ethoxy]carbonyl}amino)thiophen-2-yl]-2′-methoxy-[1,1′-biphenyl]-4-yl}cyclopropanecarboxylate] | ≤ 200 nM |
